According to US12351559B2 (Biohaven Therapeutics Ltd., priority 2014, dated 2025):

Molecular target: T1, Kv7.2/7.3 (Homo sapiens, UniProt O43525+O43526)
T1 construct: host or cells: HEK cells, tetracycline-inducible expression
Assay: Kv7.2/7.3 activation assay, QPatch planar patch-clamp, single concentration screen
Assay type: cell-based
Parameters: key: <1.2-fold increase over baseline (−); +/−: as a range from <1.2-fold increase over baseline (−) up to >6-fold increase over baseline (+++); as a range from <1.2-fold increase over baseline (−) up to >6-fold increase over baseline (+++); as a range from <1.2-fold increase over baseline (−) up to >6-fold increase over baseline (+++); >6-fold increase over baseline (+++)
Settings: Kv7.2/Kv7.3 co-expressing HEK cells, compound 3 μM, steady-state current at end of 2 s pulse to −30 mV
Description: The ability of compounds to potentiate K-currents in Kv7.2/7.3 containing HEK cells was assessed using planar patch-clamp on the QPatch automated screening platform.
Cell Line: The hKv7.2/7.3 cell line was obtained from Chantest (Cleveland, OH 44128) cat. #CT6147. These HEK cells will express the Kv7.2/7.3 ion channels when induced.
Cell Culture: Cells were maintained in a media containing DMEM/F12; 50/50 (GIBCO cat. #11330), 10% Fetal Bovine Serum (FBS) (GIBCO cat. #26140), 100 units/mL Penicillin-Streptomycin (GIBCO cat. #15140), 0.005 mg/mL Blasticidin (INVIVOGEN cat. #ant-bl-1), 0.5 mg/mL Geneticin (GIBCO cat. #10131), 0.1 mg/ml Zeocin (GIBCO cat. #R25001). Cells used in the electrophysiology assay were maintained in a media without Blasticidin, Geneticin and Zeocin for 2 days and channel expression was induced by adding tetracycline (BIOLINE cat. #BIO-87030) at a final concentration of 1 mg/mL. Cells were grown in T-175 flask to ˜75% confluency. Currents were recorded 24 hours after channel induction.
Compound Plates: Test compounds were prepared by performing serial dilutions on a Biomek NX^P (BECKMAN COULTER). Final dilutions were made in external recording solution with a final DMSO concentration of 0.1% DMSO. For single concentration screens each plate had 10 μM retigabine as a positive control and 0.1% DMSO as a negative control.
Electrophysiology: On the day of the experiment cells were washed with Hank's Balanced Salt Solution (HBBS) (GIBCO cat. #14175) and harvested with Tryple (GIBCO cat. #12604). Cells were then centrifuged at 2000 rpm for 5 minutes and resuspended in CHO-S-SFM (GIBCO cat. #12052) at ˜3×10^6 cells/mL. Cells were stirred for 30 minutes before experiments were started. External recording solution contained (in mM): NaCl (145), KCl (4), CaCl2 (2), MgCl2 (1), HEPES (10) and Glucose (10); pH was adjusted to 7.4 with NaOH and the osmolarity was adjusted to 300-305 mOsM with sucrose if necessary. Internal solution contained (in mM): KCl (125), KF (10), EGTA (5), Na2ATP (5), MgCl2 (3.2), HEPES (5); pH was adjusted to 7.2 with KOH and the osmolarity was adjusted to 298-302 mOsM with sucrose.
Potassium channel activity was measured on the QPatch HTX (Sophion Bioscience) using QPlates with 48-wells/plate. Each cell was taken as an independent experiment and only one compound was tested per well. Potassium channel activity was elicited by holding at −80 mV and stepping to −30 mV for 2 s followed by a 100 ms pulse to −120 mV.
Single concentration screen: Baseline conditions were obtained by recording 5 sweeps in the external solution only, this was repeated for three applications of the external solution. […] The steady-state current at the end of the 2 s pulse to −30 mV was measured to determine the fold increase from baseline.

Row | SMILES | Kv7.2/7.3 Activity: increase in current over baseline
1 | CC(C)(O)CC(=O)Nc1nc2ccc(C(F)(F)F)cc2n1C1CCC1 [Example 35, N-(1-cyclobutyl-6-(trifluoromethyl)-1H-benzo[d]imidazol-2-yl)-3-hydroxy-3-methylbutanamide] | +
2 | CN(C)C(CC(=O)Nc1nc2ccc(C#N)cc2n1C1CCC1)C(F)(F)F (stereo not shown) [Example 24, N-(6-cyano-1-cyclobutyl-1H-benzo[d]imidazol-2-yl)-3-(dimethylamino)-4,4,4-trifluorobutanamide] | +
3 | CC(C)[C@H](C)C(=O)Nc1nc2ccc(C(C)(C)O)cc2n1C1CCC1 [Example 54, (S)-N-(1-cyclobutyl-6-(2-hydroxypropan-2-yl)-1H-benzo[d]imidazol-2-yl)-2,3-dimethylbutanamide] | ++
4 | O=C(CC1(O)CCC1)Nc1nc2ccc(Cl)cc2n1C1CCC1 [Example 62, N-(6-chloro-1-cyclobutyl-1H-benzo[d]imidazol-2-yl)-2-(1-hydroxycyclobutyl)acetamide] | +
5 | CC1(n2c(NC(=O)C[C@](C)(O)c3ccc(F)cc3)nc3ccc(C#N)cc32)CCC1 [Example 138, (S)-N-(6-cyano-1-(1-methylcyclobutyl)-1H-benzo[d]imidazol-2-yl)-3-(4-fluorophenyl)-3-hydroxybutanamide] | +
6 | CC(C)[C@H](C)C(=O)Nc1nc2ccc(C#N)cc2n1-c1ccc(F)cn1 [Example 73, (S)-N-(6-cyano-1-(5-fluoropyridin-2-yl)-1H-benzo[d]imidazol-2-yl)-2,3-dimethylbutanamide] | +/−
7 | CC(C)(O)[C@H]1C[C@@H]1C(=O)Nc1nc2ccc(C#N)cc2n1C1CCC1 [Example 15, (1S,2S)-N-(6-cyano-1-cyclobutyl-1H-benzo[d]imidazol-2-yl)-2-(2-hydroxypropan-2-yl)cyclopropane-1-carboxamide] | +/−
8 | N#Cc1ccc2nc(NC(=O)C3CC(F)(F)C3)n(C3CCC3)c2c1 [Example 9, N-(6-cyano-1-cyclobutyl-1H-benzo[d]imidazol-2-yl)-3,3-difluorocyclobutane-1-carboxamide] | +
9 | Cc1cc2nc(NC(=O)CC(C)(C)C)n(C(C)(C)C)c2cc1C#N [Example 127, N-(1-(tert-butyl)-6-cyano-5-methyl-1H-benzo[d]imidazol-2-yl)-3,3-dimethylbutanamide] | +
10 | CC(C)(O)[C@H]1C[C@@H]1C(=O)Nc1nc2ccc(C(F)(F)F)cc2n1C1CCC1 [Example 41, (1S,2S)-N-(1-cyclobutyl-6-(trifluoromethyl)-1H-benzo[d]imidazol-2-yl)-2-(2-hydroxypropan-2-yl)cyclopropane-1-carboxamide] | +/−
11 | C[C@@](O)(CC(=O)Nc1nc2cc(C(F)(F)F)cc(F)c2n1C1CCC1)C(F)(F)F [Example 132, (R)-N-(1-cyclobutyl-7-fluoro-5-(trifluoromethyl)-1H-benzo[d]imidazol-2-yl)-4,4,4-trifluoro-3-hydroxy-3-methylbutanamide] | +/−
12 | CC1(C)C[C@@H]1C(=O)Nc1nc2ccc(Cl)cc2n1C1CCC1 [Example 58, (S)-N-(6-chloro-1-cyclobutyl-1H-benzo[d]imidazol-2-yl)-2,2-dimethylcyclopropane-1-carboxamide] | +
13 | C[C@H](C(=O)Nc1nc2ccc(C#N)cc2n1C1CCC1)C(C)(C)C [Example 23, (S)-N-(6-cyano-1-cyclobutyl-1H-benzo[d]imidazol-2-yl)-2,3,3-trimethylbutanamide] | ++
14 | CC(C)(O)c1ccc2nc(NC(=O)C3CC4(CCC4)C3)n(C3CCC3)c2c1 [Example 87, N-(1-cyclobutyl-6-(2-hydroxypropan-2-yl)-1H-benzo[d]imidazol-2-yl)spiro[3.3]heptane-2-carboxamide] | ++
15 | CC1(n2c(NC(=O)C[C@](C)(O)c3ccc(Cl)cc3)nc3ccc(C#N)cc32)CCC1 [Example 140, (S)-3-(4-chlorophenyl)-N-(6-cyano-1-(1-methylcyclobutyl)-1H-benzo[d]imidazol-2-yl)-3-hydroxybutanamide] | +/−
16 | CC(C)(C)CC(=O)Nc1nc2ccc(C(F)(F)F)cc2n1C1CCC1 [Example 34, N-(1-cyclobutyl-6-(trifluoromethyl)-1H-benzo[d]imidazol-2-yl)-3,3-dimethylbutanamide] | ++
17 | COC(C)(C)CC(=O)Nc1nc2ccc(C#N)cc2n1C1CCC1 [Example 12, N-(6-cyano-1-cyclobutyl-1H-benzo[d]imidazol-2-yl)-3-methoxy-3-methylbutanamide] | +/−
18 | CCC(O)c1ccc2nc(NC(=O)CC(C)(C)C)n(C3CCC3)c2c1 (stereo not shown) [Example 57] | +
19 | Cc1cc(-n2c(NC(=O)[C@@H](C)C(C)C)nc3ccc(C(F)(F)F)cc32)on1 [Example 47, (S)-2,3-dimethyl-N-(1-(3-methylisoxazol-5-yl)-6-(trifluoromethyl)-1H-benzo[d]imidazol-2-yl)butanamide] | +
20 | CC(C)(C)CC(=O)Nc1nc2cccc(C(C)(C)O)c2n1C1CCC1 [Example 82, N-(1-cyclobutyl-7-(2-hydroxypropan-2-yl)-1H-benzo[d]imidazol-2-yl)-3,3-dimethylbutanamide] | +/−
21 | CC1(C)C[C@@H]1C(=O)Nc1nc2ccc(C#N)cc2n1-c1ccc(F)cc1 [Example 33, (S)-N-(6-cyano-1-(4-fluorophenyl)-1H-benzo[d]imidazol-2-yl)-2,2-dimethylcyclopropane-1-carboxamide] | +
22 | Cc1cc2nc(NC(=O)CC(C)(C)O)n(C(C)(C)C)c2cc1C#N [Example 128, N-(1-(tert-butyl)-6-cyano-5-methyl-1H-benzo[d]imidazol-2-yl)-3-hydroxy-3-methylbutanamide] | +/−
23 | CC(C)(C)CC(=O)Nc1nc2ccc(C(C)(C)O)cc2n1C1CCC1 [Example 53, N-(1-cyclobutyl-6-(2-hydroxypropan-2-yl)-1H-benzo[d]imidazol-2-yl)-3,3-dimethylbutanamide] | +
24 | Cc1cc2nc(NC(=O)CC(C)(C)O)n(C3CCC3)c2cc1C#N [Example 130, N-(6-cyano-1-cyclobutyl-5-methyl-1H-benzo[d]imidazol-2-yl)-3-hydroxy-3-methylbutanamide] | +/−
25 | Cc1cc2nc(NC(=O)C[C@](C)(O)C(F)(F)F)n(C(C)(C)C)c2cc1C#N [Example 134, (S)-N-(1-(tert-butyl)-6-cyano-5-methyl-1H-benzo[d]imidazol-2-yl)-4,4,4-trifluoro-3-hydroxy-3-methylbutanamide] | +/−
